Patent US10011616B2, “Boron-containing small molecules as antiprotozoal1 agents” (MMV MEDICINES FOR MALARIA VENTURE, priority 2015, dated 2018)

Assays:
[1] = test system: W2 strain of Plasmodium falciparum; test: In vitro activity against W2 strain of Plasmodium falciparum (YOYO-1 flow cytometry); format: cell-based; details: Erythrocyte, 48 h, P. falciparum W2 in human erythrocytes, 2 d, growth inhibition, read-out: IC50: 1 Org. Growth P. falciparum W2, 2 d (LPS_00451)
[2] = test system: 3D7 strain of Plasmodium falciparum; test: In vitro activity against 3D7 strain of Plasmodium falciparum ([3H]-hypoxanthine incorporation assay); format: cell-based; details: Erythrocyte, 48 h, P. falciparum 3D7 in human erythrocytes, 2 d, growth inhibition, read-out: IC50: 1 Org. Growth P. falciparum 3D7, 2 d (LPS_00570)

Structure (SMILES) | IC50 [1] | IC50 [2]
CCC1(O)CN(C(=O)c2cnc(Oc3ccc4c(c3C)B(O)OC4)cn2)C1 [Example 54, (3-ethyl-3-hydroxyazetidin-1-yl)(5-((1-hydroxy-7-methyl-1,3-dihydrobenzo[c][1,2]oxaborol-6-yl)oxy)pyrazin-2-yl)methanone] | 28.9 nM | 87 nM
Cc1c(Oc2cnc(C(=O)N[C@@H](C)C(C)(C)O)cn2)ccc2c1B(O)OC2 [Example 47, (S)—N-(3-hydroxy-3-methylbutan-2-yl)-5-(1-hydroxy-7-methyl-1,3-dihydrobenzo[c][1,2]oxaborol-6-yloxy)pyrazine-2-carboxamide] | 202 nM | 327 nM
Cc1c(Oc2cnc(C(=O)N3CC(O)(C(F)(F)F)C3)cn2)ccc2c1B(O)OC2 [Example 58, (3-hydroxy-3-(trifluoromethyl)azetidin-1-yl) (5-((1-hydroxy-7-methyl-1,3-dihydrobenzo[c][1,2]oxaborol-6-yl)oxy)pyrazin-2-yl)methanone] | 6.6 nM | 13.9 nM
Cc1c(Oc2cnc(C(=O)N3CC(O)(C4CC4)C3)cn2)ccc2c1B(O)OC2 [Example 55, (3-cyclopropyl-3-hydroxyazetidin-1-yl) (5-((1-hydroxy-7-methyl-1,3-dihydrobenzo[c][1,2]oxaborol-6-yl)oxy)pyrazin-2-yl)methanone] | 51.7 nM | 234 nM
Cc1c(Oc2cnc(C(=O)NCC(C)(C)O)cn2)ccc2c1B(O)OC2 [Example 4, N-(2-hydroxy-2-methylpropyl)-5-(1-hydroxy-7-methyl-1,3-dihydrobenzo[c][1,2]oxaborol-6-yloxy)pyrazine-2-carboxamide] | 334 nM | 554 nM
Cc1c(Oc2cnc(C(=O)NC(CO)c3ccccc3)cn2)ccc2c1B(O)OC2 (stereo not shown) [Example 16, N-(2-hydroxy-1-phenylethyl)-5-(1-hydroxy-7-methyl-1,3-dihydrobenzo[c][1,2]oxaborol-6-yloxy)pyrazine-2-carboxamide] | 223 nM | 380 nM
Cc1c(Oc2cnc(C(=O)N(CCO)CCO)cn2)ccc2c1B(O)OC2 [Example 6, 5-(1-hydroxy-7-methyl-1,3-dihydrobenzo[c][1,2]oxaborol-6-yloxy)-N,N-bis(2-hydroxyethyl)pyrazine-2-carboxamide] | 328 nM | 184 nM
CC[C@@H](NC(=O)c1cnc(Oc2ccc3c(c2C)B(O)OC3)cn1)C(C)(C)O [Example 45, (R)—N-(2-hydroxy-2-methylpentan-3-yl)-5-(1-hydroxy-7-methyl-1,3-dihydrobenzo[c][1,2]oxaborol-6-yloxy)pyrazine-2-carboxamide] | 91.8 nM | 222 nM
